# From patent publication US20150218212A1, “FLUORINATED EPOXYKETONE-BASED TETRAPEPTIDE COMPOUNDS AND USES THEREOF AS PROTEASOME INHIBITORS” (FLUORINOV PHARMA INC., priority 2012, published 2015)
# Assays:
# [1] = test system: ACHN; assay: NCI screening panel, ACHN (Renal Cancer); format: cell-based, human
# Protocol: (§1) Representative compounds of Formula I were screened using the National Cancer Institute (NCI) screening panel, which consists of a panel of human tumor cell lines, representing leukemia, melanoma, and cancers of the lung, colon, ovary, breast, prostate and renal system.
# (§2) After 24 h, two plates of each cell line are fixed in situ with TCA, to represent a measurement of the cell population for each cell line at the time of drug addition (Tz). Experimental drugs are solubilised in dimethyl sulfoxide at 400-fold the desired final maximum test concentration and stored frozen prior to use. At the time of drug addition, an aliquot of frozen concentrate is thawed and diluted to twice the desired final maximum test concentration with complete medium containing 50 μg/mL gentamicin. Additional four, 10-fold or ½ log serial dilutions are made to provide a total of five drug concentrations plus control. Aliquots of 100 μl of these different drug dilutions are added to the appropriate microtiter wells already containing 100 μl of medium, resulting in the required final drug concentrations.
# (§3) Following drug addition, the plates are incubated for an additional 48 h at 37° C., 5% CO2, 95% air, and 100% relative humidity. For adherent cells, the assay is terminated by the addition of cold TCA (trichloroacetic acid). Cells are fixed in situ by the gentle addition of 50 μl of cold 50% (w/v) TCA (final concentration, 10% TCA) and incubated for 60 minutes at 4° C. The supernatant is discarded, and the plates are washed five times with tap water and air dried. Sulforhodamine B (SRB) solution (100 μl) at 0.4% (w/v) in 1% acetic acid is added to each well, and plates are incubated for 10 minutes at room temperature. After staining, unbound dye is removed by washing five times with 1% acetic acid and the plates are air dried. Bound stain is subsequently solubilised with 10 mM trizma base, and the absorbance is read on an automated plate reader at a wavelength of 515 nm. For suspension cells, the methodology is the same except that the assay is terminated by fixing settled cells at the bottom of the wells by gently adding 50 μl of 80% TCA (final concentration, 16% TCA). Using the seven absorbance measurements [time zero, (Tz), control growth, (C), and test growth in the presence of drug at the five concentration levels (Ti)], the percentage growth is calculated at each of the drug concentrations levels. Percentage growth inhibition is calculated as: [(Ti−Tz)/(C−Tz)]×100 for concentrations for which Ti>/=Tz and [(Ti−Tz)/Tz]×100 for concentrations for which Ti<Tz.
# (§4) Three dose response parameters are calculated for each experimental agent. Growth inhibition of 50% (GI50) is calculated from [(Ti−Tz)/(C−Tz)]×100=50, which is the drug concentration resulting in a 50% reduction in the net protein increase (as measured by SRB staining) in control cells during the drug incubation. The drug concentration resulting in total growth inhibition (TGI) is calculated from Ti=Tz. The LC50 (concentration of drug resulting in a 50% reduction in the measured protein at the end of the drug treatment as compared to that at the beginning) indicating a net loss of cells following treatment is calculated from [(Ti−Tz)/Tz]×100=−50. Values are calculated for each of these three parameters if the level of activity is reached. However, if the effect is not reached or is exceeded, the value for that parameter is expressed as greater or less than the maximum or minimum concentration tested.
# [2] = test system: DU-145; assay: NCI screening panel, DU-145 (Prostate Cancer); format: cell-based, human
# Protocol: as §1, §2, §3, §4
# [3] = test system: U251; assay: NCI screening panel, U251 (CNS Cancer); format: cell-based, human
# Protocol: as §1, §2, §3, §4
# [4] = test system: OCI-AML-2; assay: Cell viability (MTS) assay, OCI-AML-2; format: cell-based; details: Homo sapiens, OCI-AML2; OCI-AML-2, MTS, 72 hours, mean ± standard deviation
# Protocol: Human multiple myeloma cell lines 8226, H929, JJN3, KMH11, KMS11, KMS18, LP1, MM1S, OPM2 and U266 were grown in Iscove modified Dulbecco's medium (IMDM). Human leukemia cell lines K562, OCI-AML2 and U937 were cultured in RPMI-1640 medium. Primary peripheral blood mononuclear cells were isolated from multiple myeloma patients by Ficoll density gradient centrifugation and bone marrow aspirates were obtained from multiple myeloma patients at the Princess Margaret Cancer Centre of the University Health Network (UHN; Toronto, ON, Canada). Primary cells were cultured in IMDM. The collection and use of human tissue for this study was approved by the UHN institutional ethics review board. All cell culture media were obtained from the Ontario Cancer Institute Tissue Culture Media Facility (Toronto, ON, Canada) and were supplemented with 10% fetal calf serum, […] (Hyclone, Logan, Utah). All cells were grown in a humidified incubator at 37° C. with 5% CO2.
# Cellular viability was primarily assessed by 3-(4,5-dimethylthiazol-2-yl)-5-(3-carboxymethoxyphenyl)-2-(4-sulfophenyl)-2H-tetrazolium (MTS) assay according to the manufacturer's instructions (Promega; Madison, Wis.). Cells were first seeded at a density of 10,000 cells per well in tissue culture-treated 96-well plates. Two hours after seeding, cells were treated with compounds for 72 hours at concentrations as indicated. As a control, cells were treated with DMSO alone in every assay plate. Following treatment and the MTS assay, cell viability was independently confirmed by reading the optical density (O.D.) at 490 nm and by exclusion of trypan blue stain (Invitrogen; Burlington, ON, Canada). The viability of primary mononuclear cells was determined by staining with Annexin V.
# Table 8 summarizes the data of representative compounds of Formula I for cell viability and CT-L proteasome activity with OCI-AML-2 and KMS-11 cell lines.
# [5] = test system: SN12C; assay: NCI screening panel, SN12C (Renal Cancer); format: cell-based, human
# Protocol: as §1, §2, §3, §4
# [6] = test system: SR; assay: NCI screening panel, SR (Leukemia); format: cell-based, human
# Protocol: as §1, §2, §3, §4
# [7] = test system: RXF 393; assay: NCI screening panel, RXF 393 (Renal Cancer); format: cell-based, human
# Protocol: as §1, §2, §3, §4
# [8] = test system: 786-0; assay: NCI screening panel, 786-0 (Renal Cancer); format: cell-based, human
# Protocol: as §1, §2, §3, §4
# [9] = test system: NCI-H460; assay: NCI screening panel, NCI-H460 (Non-Small Cell Lung Cancer); format: cell-based, human
# Protocol: as §1, §2, §3, §4
# [10] = test system: HT29; assay: NCI screening panel, HT29 (Colon Cancer); format: cell-based, human
# Protocol: as §1, §2, §3, §4
# [11] = test system: MDA-MB-231/ATCC; assay: NCI screening panel, MDA-MB-231/ATCC (Breast Cancer); format: cell-based, human
# Protocol: as §1, §2, §3, §4
SMILES,Log10GI50 [1],Log10LC50 [1],Log10TGI50 [1],Log10GI50 [2],Log10LC50 [2],Log10TGI50 [2],Log10GI50 [3],Log10LC50 [3],Log10TGI50 [3],IC50 [4],Log10GI50 [5],Log10LC50 [5],Log10TGI50 [5],Log10GI50 [6],Log10TGI50 [6],Log10GI50 [7],Log10LC50 [7],Log10TGI50 [7],Log10GI50 [8],Log10LC50 [8],also measured
"CC(C)C[C@H](NC(=O)[C@H](COC(F)F)NC(=O)[C@H](COC(F)F)NC(=O)[C@H](CCc1ccccc1)NC(=O)CN1CCOCC1)C(=O)[C@@]1(C)CO1 [Example 7, (2S)-N-[(1S)-1-(difluoromethoxymethyl)-2-[[(1S)-1-(difluoromethoxymethyl)-2-[[(1S)-3-methyl-1-[(2R)-2-methyloxirane-2-carbo-nyl]butyl]amino]-2-oxo-ethyl]amino]-2-oxo-ethyl]-2-[(2-morpholinoacetyl)amino]-4-phenyl-butanamide]",−6.31,>−4.00,>−4.00,−7.42,>−4.00,−4.75,−7.63,−5.04,−6.79,61.1 ± 10.1 nM,−7.46,−5.85,−6.77,−7.64,>−4.00,−6.93,−6.22,−6.57,−6.45,>−4.00,Log10LC50 [6]: >−4.00; Log10TGI50 [8]: −5.33; Log10GI50 [9]: −7.28; Log10LC50 [9]: >−4.00; Log10TGI50 [9]: −6.50; Log10GI50 [10]: <−8.00; Log10LC50 [10]: >−4.00; Log10TGI50 [10]: −4.93; Log10GI50 [11]: −7.64; Log10LC50 [11]: −4.92; Log10TGI50 [11]: −7.14
"CC(C)C[C@H](NC(=O)[C@H](Cc1ccccc1)NC(=O)[C@H](COC(F)F)NC(=O)[C@H](COC(F)F)NC(=O)CN1CCOCC1)C(=O)[C@@]1(C)CO1 [Example 11, (2S)-2-[[(2S)-3-(difluoromethoxy)-2-[[(2S)-3-(difluoromethoxy)-2-[(2-morpholinoacetyl)-amino]propanoyl]amino]propanoyl]amino]-N-[(1S)-3-methyl-1-[(2R)-2-methyloxirane-2-carbonyl]butyl]-3-phenyl-propanamide]",−6.40,>−4.00,>−4.00,−7.31,>−4.00,−5.94,−7.59,−4.04,−6.71,15.7 ± 3.56 nM,−7.20,−5.39,−6.50,−7.82,>−4.00,−6.98,−6.23,−6.60,−6.66,>−4.00,Log10LC50 [6]: >−4.00; Log10TGI50 [8]: −5.63; Log10GI50 [9]: −7.29; Log10LC50 [9]: −4.85; Log10TGI50 [9]: −6.51; Log10GI50 [10]: −7.70; Log10LC50 [10]: >−4.00; Log10TGI50 [10]: −5.91; Log10GI50 [11]: −7.56; Log10LC50 [11]: −4.39; Log10TGI50 [11]: −6.94
"CC(C)C[C@H](NC(=O)[C@H](COC(F)F)NC(=O)[C@H](COC(F)F)NC(=O)[C@H](COC(F)F)NC(=O)CN1CCOCC1)C(=O)[C@@]1(C)CO1 [Example 17, (2S)-3-(difluoromethoxy)-N-[(1S)-1-(difluoromethoxymethyl)-2-[[(1S)-1-(difluoro-methoxymethyl)-2-[[(1S)-3-methyl-1-[(2R)-2-methyloxirane-2-carbonyl]butyl]amino]-2-oxo-ethyl]amino]-2-oxo-ethyl]-2-[(2-mor-pholinoacetyl)amino]-propanamide]",−5.55,>−4.00,>−4.00,−7.07,>−4.00,−4.84,−7.26,−5.25,−6.32,136 ± 36.8 nM,−6.71,−5.06,−6.08,−7.27,>−4.00,−6.48,−5.41,−5.94,−5.99,>−4.00,Log10TGI50 [8]: −4.92; Log10GI50 [9]: −6.50; Log10LC50 [9]: −4.60; Log10TGI50 [9]: −5.88; Log10GI50 [10]: −7.30; Log10LC50 [10]: >−4.00; Log10TGI50 [10]: −6.28; Log10GI50 [11]: −6.87; Log10LC50 [11]: −4.25; Log10TGI50 [11]: −6.10
